In publication PMC9083030 (RSC Advances, 2018):

System: QGY-7701 cell line
Test: CCK-8 cell proliferation assay, QGY-7701
Assay type: cell-based, human
Settings: read-out: IC50 QGY-7701; CCK8, 72 h of treatment

**Q.** How did the IC50 turn out when `N.N.[Cl][Pt][Cl]` [Cisplatin] was run?
**A.** The IC50 was 8.75 ± 0.26 µM.
